The subject of data set [1] is rat. Kind of data set: Cardiovascular effects in the rat (blood pressure and heart rate, with and without propranolol or atropine). It is filed as in vivo.
In data set [2] the test system is aspirin-induced gastric ulceration. Kind of data set: Aspirin-induced gastric ulceration / lesions in rats. The settings on record: for reduction of aspirin-induced gastric lesions: general statement, no dose. The format is in vivo, rat.
Data set [3] has as its system pentagastrin-induced gastric acid secretion. Kind of data set: Pentagastrin-induced gastric acid secretion in rats. It is filed as in vivo, rat.
In data set [4] the test system is male normotensive rats Wistar (Charles River) strain. The data set can be described thus: Cardiovascular effects in rats (fall in blood pressure, anaesthetised normotensive rats). The format is in vivo, rat. The settings on record: i.v. The protocol: Male normotensive rats Wistar (Charles River) strain, (250-350 g) were anesthetised (chloroform) prior to cannulation of the left femoral vein and anaesthesia maintained by intravenous chloralose (60 mg/kg). Pulsatile blood pressure was recorded from the left femoral artery with an electronic transducer (Bell and Howell Type 4-327 L221) and integrated heart rate was measured with a cardiotachometer triggered from the arterial pressure waves.
The test compound was administered as a solution in physiological saline by intravenous injection via the femoral cannula. The responses recorded were allowed to return to the preinjection levels between successive administrations.

Data set [5] relates to histamine-induced broncho-constriction. Kind of data set: Histamine-induced broncho-constriction. It is filed as in vivo, guinea-pig.
The test system of data set [6] is vascular smooth muscle. Kind of data set: Relaxation of vascular smooth muscle. As to conditions: similar to prostaglandin A and E series; general statement.
Data set [7] has as its system human platelet rich plasma (PRP). Kind of data set: Inhibition of ADP-stimulated platelet aggregation (Born aggregometer). The format is cell-based. As for the experimental part: Aggregation of platelets in 1 ml. of fresh humam platelet rich plasma (PRP) was monitored in a Born aggregometer.
The compound to be tested was added to the PRP at the desired concentration, and the resulting mixture incubated at 37° C. for 1 minute after which platelet aggregation was stimulated by the addition of adenosine diphosphate (ADP) to a concentration of 5 μM.
The anti-aggregatory effect of the compound was assessed by measuring the percentage inhibition of platelet aggregation in the presence of the compound as compared when it was completely absent.

In data set [8] the test system is electrically-induced arterial thrombosis. The data set can be described thus: Electrically-induced arterial thrombosis in anaesthetised rabbits. The format is in vivo, rabbit. The settings on record: intravenous infusion 250 μg/min.
The test system of data set [9] is dogs. The data set can be described thus: Urine volume in dogs, intravenous infusion. The format is in vivo, dog.
Where [10] appears, read: Compound 14 (m.p. 96°-98°) 2 mg/kg i.v. with propranolol 3 mg/kg.
The mark [11] stands for this setting: Compound 14 (m.p. 96°-98°) 2 mg/kg i.v., no propranolol.
[12] abbreviates: Compound 14 (m.p. 96°-98°) 5 mg/kg i.v. with propranolol 3 mg/kg.
Setting [13] is: Compound 14 (m.p. 96°-98°) 5 mg/kg i.v., no propranolol.

Turning to `CN1[C@@H]2CC[C@H]1C[C@@H](OC(=O)C(CO)c1ccccc1)C2` (stereo partly shown) [atropine, reference compound], in data set [1] (atropine 2 mg/kg i.v.), the “effect of concurrent atropine on hypotensive effect of Compound 14” value is on record as “did not significantly affect” and the “effect of concurrent atropine on tachycardiac effect of Compound 14” value is given as “did not significantly affect”.

On to `CCCCCC(=O)CCN1C(=O)N(C)C(=O)C1CCCCCCC(=O)O` (stereo not shown) [Compound 90, 5-(6-Carboxyhexyl)-3-methyl-1-(3-oxooctyl)hydantoin], for which, in data set [2], the “reduction of aspirin-induced gastric lesions” value was “reduce the formation of aspirin-induced gastric lesions”. Further, the “protection against aspirin-induced gastric ulceration” value in data set [2] (oral dose of 1 mg/kg) came out at 80%. In addition, the “inhibition of pentagastrin-induced gastric acid secretion” value in [3] (general statement, no dose) is “inhibit pentagastrin-induced gastric acid secretion”.

In the case of `CCCCC(C)(C)C(O)CCN1C(=O)NC(=O)C1CCCCCCC(=O)O` (stereo not shown) [Compound 9, 5-(6-Carboxyhexyl)-1-(3-hydroxy-4,4-dimethyloctyl)hydantoin], the “Mean fall in blood pressure” value in data set [4] (3 mg/kg) is on record as 22 mmHg. The “antagonism of histamine induced broncho-constriction (PGE1-like)” value in data set [5] (general statement, no dose) was “mimics the effect of PGE1 of antagonising histamine induced broncho-constriction”. For the same molecule, the “antagonism of histamine-induced broncho-constriction” value in [5] (intravenous injection 50 μg/kg, anaesthetised guinea-pigs) is recorded as “completely anatagonise”. In addition, the “relaxation of vascular smooth muscle” value in data set [6] is on record as “relaxation of vascular smooth muscle”.

As to `CC(C)(Cc1ccccc1)C(O)CCN1C(=O)NC(=O)C1CCCCCCC(=O)O` (stereo not shown) [Example 1, 5-(6-carboxyhexyl)-1-(3-hydroxy-4,4-dimethyl-5-phenylpentyl)-hydantoin], in [6], the “relaxation of vascular smooth muscle” value is reported as “relaxation of vascular smooth muscle”.

In the case of `CC(C)NCC(O)COc1cccc2ccccc12` (stereo not shown) [propranolol, reference compound], in [1] (concurrent dose of propranolol), the “effect of concurrent propranolol on hypotensive action of Compound 14” value was “without significantly effecting the hypotensive action” and the “effect of concurrent propranolol on tachycardia caused by Compound 14” value is “considerably reduced the tachycardia”.

Take `CCCCC[C@H](O)/C=C/[C@H]1[C@H](O)CC(=O)[C@@H]1CCCCCCC(=O)O` [PGE1, reference compound]: 0.015 µg/mL produced 33% inhibition in data set [7] (Homo sapiens, Platelet, 15 ng/ml, ADP 5 μM). Besides, the inhibition – broadly, the drop in the measured response relative to a control, in per cent – at 0.02 µg/mL in data set [7] (Homo sapiens, Platelet, 20 ng/ml, ADP 5 μM) came to 47%. This molecule gave an inhibition at 0.03 µg/mL in data set [7] (Homo sapiens, Platelet, 30 ng/ml, ADP 5 μM) of 63%. This molecule also gave an inhibition at 0.04 µg/mL in [7] (Homo sapiens, Platelet, 40 ng/ml, ADP 5 μM) of 69%.

Consider `O=C(O)CCCCCCC1C(=O)NC(=O)N1CCC(O)C1CCC1` (stereo not shown) [Compound 11 (114°-116°), 5-(6-Carboxyhexyl)-1-(3-hydroxy-3-cyclobutylpropyl)hydantoin], for which the “relative potency with respect to PGE1 (inhibition of platelet aggregation)” value in [7] is reported as 5.2 ×.

In turn, `O=C(O)CCCCCCC1C(=O)NC(=O)N1CCC(O)C1CCCC1` (stereo not shown) [Compound 12 (m.p. 116-117°), 5-(6-Carboxyhexyl)-1-(3-hydroxy-3-cyclopentylpropyl)hydantoin] registered an inhibition at 0.0005 µg/mL in data set [7] (Homo sapiens, Platelet, 0.5 ng/ml, ADP 5 μM) of 25%. This molecule had an inhibition at 0.001 µg/mL in data set [7] (Homo sapiens, Platelet, 1.0 ng/ml, ADP 5 μM) of 51%. In data set [7] (Homo sapiens, Platelet, 2.0 ng/ml, ADP 5 μM), this molecule returned an inhibition at 0.002 µg/mL of 79%. This molecule registered an inhibition at 0.004 µg/mL in data set [7] (Homo sapiens, Platelet, 4.0 ng/ml, ADP 5 μM) of 94%. The “relative potency with respect to PGE1 (inhibition of platelet aggregation)” value in [7] is 12.5 ×.

Consider `CCCCCC(=O)CCN1C(=O)NC(=O)C1CCCCCCC(=O)O` (stereo not shown) [Example 88, 5-(6-carboxyhexyl)-1-(3-oxooctyl)hydantoin], for which, in data set [2], the “reduction of aspirin-induced gastric lesions” value is listed as “reduce the formation of aspirin-induced gastric lesions”. In addition, the “inhibition of pentagastrin-induced gastric acid secretion” value in data set [3] (general statement, no dose) is on record as “inhibit pentagastrin-induced gastric acid secretion”.

Turning to `O=C(O)CCCCCCC1C(=O)NC(=O)N1CCC(O)C1CCCCC1` (stereo not shown) [Compound 14, 5-(6-Carboxyhexyl)-1-(3-hydroxy-3-cyclohexylpropyl)hydantoin], the “Mean fall b.p. (±SD)” value in data set [1] (setting [10]) is listed as 28 ± 5; in [1] (setting [11]), 28 ± 6.5; in data set [1] (setting [12]), 27 ± 7.5; in data set [1] (setting [13]) it was 34 ± 3. For the same molecule, the “Mean rise hrt.rate (±S.D)” value in [1] (setting [10]) worked out at 6.5 ± 3; in data set [1] (setting [11]), 44 ± 7; in data set [1] (setting [12]), 11.5 ± 2.5; in data set [1] (setting [13]) it was 47.5 ± 2.5.

Take `CCCCCC(O)CCN1C(=O)NC(=O)C1CCCCCCC(=O)O` (stereo not shown) [Compound 2 (m.p. 76°-78°), 5-(6-Carboxyhexyl)-1-(3-hydroxyoctyl)hydantoin]: the “relative potency with respect to PGE1 (inhibition of platelet aggregation)” value in data set [7] is listed as 12.5 ×. The “reduction of electrically-induced arterial thrombosis” value in data set [8] is recorded as “reduce electrically-induced arterial thrombosis”.

Take `O=C(O)CCCCCCC1C(=O)NC(=O)N1CCC(O)C1CCCCC1` (stereo not shown) [Compound 14 (m.p. 96°-98°), 5-(6-Carboxyhexyl)-1-(3-hydroxy-3-cyclohexylpropyl)hydantoin]: the “relative potency with respect to PGE1 (inhibition of platelet aggregation)” value in data set [7] was 16 ×. In [1] (i.v., in words), the “hypotensive effect in the rat” value is listed as “substantial hypotensive effect” and the “tachycardia accompanying the hypotension” value is on record as “accompanied by tachycardia”.

Take `CCCCCCC(O)CCN1C(=O)NC(=O)C1CCCCCCC(=O)O` (stereo not shown) [Compound 6, 5-(6-Carboxyhexyl)-1-(3-hydroxynonyl)hydantoin]: the “Mean fall in blood pressure” value in data set [4] (3 mg/kg) was 40 mmHg.

Take `CCCCCC(O)CCN1C(=O)NC(=O)C1CCCCCCC(=O)O` (stereo not shown) [Compound 2, 5-(6-Carboxyhexyl)-1-(3-hydroxyoctyl)hydantoin]: the “reduction of aspirin-induced gastric lesions” value in data set [2] is “reduce the formation of aspirin-induced gastric lesions”. In addition, the figures for the “Mean fall in blood pressure” value in data set [4] (10 μg/kg) and in data set [4] (1 mg/kg) were 14 mmHg and 42 mmHg, respectively. Also, the “increase of urine volume” value in data set [9] is “increase urine volume”. Besides, the “inhibition of pentagastrin-induced gastric acid secretion” value in data set [3] (general statement, no dose) is listed as “inhibit pentagastrin-induced gastric acid secretion”; in data set [3] (intravenous dose of 30 μg/kg, rats) it was “completely inhibited”.

As for `CC(C)(C)C(O)CCN1C(=O)NC(=O)C1CCCCCCC(=O)O` (stereo not shown) [Compound 4 (m.p. 144°-146°), 5-(6-Carboxyhexyl)-1-(3-hydroxy-4,4-dimethylpentyl)hydantoin], the “relative potency with respect to PGE1 (inhibition of platelet aggregation)” value in [7] came out at 0.05 ×.

`CCCCC[C@H](O)/C=C/[C@H]1[C@H](O)CC(=O)[C@@H]1C/C=C\CCCC(=O)O` [PGE2, reference compound]: the entries for the “Mean fall in blood pressure” value in data set [4] (4 μg/kg) and in [4] (16 μ/kg) were 28 mmHg and 44 mmHg, respectively.

As for `O=C(O)CCCCCCC1C(=O)NC(=O)N1CCCCOc1ccccc1` (stereo not shown) [Example 79b, 5-(6-carboxyhexyl)-1-(4-phenoxybutyl)hydantoin], in [2], the “reduction of aspirin-induced gastric lesions” value is reported as “reduce the formation of aspirin-induced gastric lesions”. Besides, the “inhibition of pentagastrin-induced gastric acid secretion” value in [3] (general statement, no dose) is listed as “inhibit pentagastrin-induced gastric acid secretion”.

These data come from patent US4262128A, “Nitrogen heterocycles” (Burroughs Wellcome Co., priority 1976, dated 1981).
